Data published in patent EP0240392A1, “Compounds of the cyclophosphazene type, process for their preparation and pharmaceutical preparation containing them” (CENTRE NATIONAL DE LA RECHERCHE SCIENTIFIQUE (CNRS), priority 1986, dated 1987).
Marks after values point to notes of the source that are not given here.

Key:
[1] = test system: RETICULO SARCOME M5076 MURIN; assay: Antitumour activity on murine M5076 reticulum sarcoma implanted i.m. in mice; format: in vivo, souris C57Bl/6; details: for Poids corporel (g±S.E.) / Poids de la rate (mg±S.E.) / Poids de la tumeur (g±S.E.) / Poids du foie (g±S.E.): jour 23; for nombre de souris vivantes/total: Tableau 5
From the text: (§1) Les tests d'activité antitumorale ont été conduits au sein du Screening and Pharmacology Group de l'E.O.R.T.C., implanté à l'Institut Mario Negri de Milan.
(§2) Ces essais ont été conduits soit en mono-injection à différentes doses au jour J+1 suivant la greffe de la tumeur, soit en poly-injections chroniques Q1D, soit en protocoles Q4D.

[2] = test system: CARCINOME MAMMAIRE LIGNEE 16; assay: Antitumour activity on mammary carcinoma line 16 implanted i.m. in mice; format: in vivo, souris 3CH
From the text: as §1, §2
(§3) L'activité antitumorale est mesurée par le rapport T/C %, T (en jours) étant le durée moyenne de vie des souris traitées, C (en jours) étant la durée moyenne de vie des souris témoins.
(§4) L'effet thérapeutique est considéré comme significatif quant T/C % est supérieur ou égal à 125.

MELANOME B16 = assay: Antitumour activity on B16 melanoma implanted i.m. in mice; format: in vivo, souris C57B1/6
From the text: as §1, §2, §3, §4

[3] = 100 mg/kg i.p. x j 1-9, jour 21
[4] = 150 mg/kg i.p. x j 1,5,9, jour 14
[5] = 150 mg/kg i.p. x j 1,5,9, jour 21
[6] = 150 mg/kg i.p. x j 1-9, jour 21
[7] = 200 mg/kg i.p. x j 1,5,9, jour 14
[8] = 200 mg/kg i.p. x j 1,5,9, jour 21
[9] = 250 mg/kg i.p. x j 1,5,9, jour 14
[10] = 250 mg/kg i.p. x j 1,5,9, jour 21
[11] = 300 mg/kg i.p. x j 1,5,9, jour 21
[12] = 200 mg/kg i.p. j 1,5,9, jour 26
[13] = 300 mg/kg i.p. j 1,5,9, jour 26
[14] = 200 mg/kg i.p. j 1,5,9, jour 27
[15] = 300 mg/kg i.p. j 1,5,9, jour 27

Question: Which results are given for `C(CCN1CCCNP12=NP(N1CC1)(N1CC1)=NP(N1CC1)(N1CC1)=N2)CN1CCCNP12=NP(N1CC1)(N1CC1)=NP(N1CC1)(N1CC1)=N2` (stereo not drawn) [SPM]?
Answer: Volume moyen de la tumeur (cm^3 ± S.E.) ([1]; 50 mg/kg i.p. x j 1-9, jour 14): 0,38±0,01 cm^3; nombre de souris avec tumeur/total ([1]; 50 mg/kg i.p. x j 1-9, jour 14): 4/10; Volume moyen de la tumeur (cm^3 ± S.E.) ([1]; 50 mg/kg i.p. x j 1-9, jour 21): 2,03±0,17 cm^3; nombre de souris avec tumeur/total ([1]; 50 mg/kg i.p. x j 1-9, jour 21): 9/9; Poids corporel (g±S.E.) ([1]; 50 mg/kg i.p. x j 1-9): 20,05±0,60 g; Poids de la rate (mg±S.E.) ([1]; 50 mg/kg i.p. x j 1-9): 206,8±12,0 mg; Poids de la tumeur (g±S.E.) ([1]; 50 mg/kg i.p. x j 1-9): 3,4033±0,26 g; Poids du foie (g±S.E.) ([1]; 50 mg/kg i.p. x j 1-9): 1,6089±0,10 g; nombre de souris avec tumeur/total ([1]; 100 mg/kg i.p. x j 1-9, jour 14): - (0/10); Volume moyen de la tumeur (cm^3 ± S.E.) [1, 3]: 0,92±0,03 cm^3; nombre de souris avec tumeur/total [1, 3]: 12/12; Poids corporel (g±S.E.) ([1]; 100 mg/kg i.p. x j 1-9): 20,22±0,37 g; Poids de la rate (mg±S.E.) ([1]; 100 mg/kg i.p. x j 1-9): 137,9±5,04 mg; Poids de la tumeur (g±S.E.) ([1]; 100 mg/kg i.p. x j 1-9): 2,1947±0,07 g; Poids du foie (g±S.E.) ([1]; 100 mg/kg i.p. x j 1-9): 1,1750±0,03 g; Volume moyen de la tumeur (cm^3 ± S.E.) [1, 4]: 0,41±0,04 cm^3; nombre de souris avec tumeur/total [1, 4]: 4/10; Volume moyen de la tumeur (cm^3 ± S.E.) [1, 5]: 2,23±0,16 cm^3; nombre de souris avec tumeur/total [1, 5]: 10/10; Poids corporel (g±S.E.) ([1]; 150 mg/kg i.p. x j 1,5,9): 21,55±0,29 g; Poids de la rate (mg±S.E.) ([1]; 150 mg/kg i.p. x j 1,5,9): 240,7±17,1 mg; Poids de la tumeur (g±S.E.) ([1]; 150 mg/kg i.p. x j 1,5,9): 3,5869±0,18 g; Poids du foie (g±S.E.) ([1]; 150 mg/kg i.p. x j 1,5,9): 1,7270±0,10 g; nombre de souris avec tumeur/total ([1]; 150 mg/kg i.p. x j 1-9, jour 14): - (0/10); Volume moyen de la tumeur (cm^3 ± S.E.) [1, 6]: 0,72±0 cm^3; nombre de souris avec tumeur/total [1, 6]: 1/10; Poids corporel (g±S.E.) ([1]; 150 mg/kg i.p. x j 1-9): 17,55±0,70 g; Poids de la rate (mg±S.E.) ([1]; 150 mg/kg i.p. x j 1-9): 103,0±6,02 mg; Poids de la tumeur (g±S.E.) ([1]; 150 mg/kg i.p. x j 1-9): 1,0795±0,11 g; Poids du foie (g±S.E.) ([1]; 150 mg/kg i.p. x j 1-9): 1,0190±0,03 g; Volume moyen de la tumeur (cm^3 ± S.E.) [1, 7]: 0,36±0,04 cm^3; nombre de souris avec tumeur/total [1, 7]: 2/10; Volume moyen de la tumeur (cm^3 ± S.E.) [1, 8]: 2,02±0,26 cm^3; nombre de souris avec tumeur/total [1, 8]: 10/10; Poids corporel (g±S.E.) ([1]; 200 mg/kg i.p. x j 1,5,9): 21,05±0,39 g; Poids de la rate (mg±S.E.) ([1]; 200 mg/kg i.p. x j 1,5,9): 208,6± 8,8 mg; Poids de la tumeur (g±S.E.) ([1]; 200 mg/kg i.p. x j 1,5,9): 3,2003±0,18 g; Poids du foie (g±S.E.) ([1]; 200 mg/kg i.p. x j 1,5,9): 1,4620±0,08 g; nombre de souris avec tumeur/total ([1]; 200 mg/kg i.p. x j 1-9, jour 14): - (0/10); nombre de souris avec tumeur/total ([1]; 200 mg/kg i.p. x j 1-9, jour 21): - (0/10); Poids corporel (g±S.E.) ([1]; 200 mg/kg i.p. x j 1-9): 17,20±0,48 g; Poids de la rate (mg±S.E.) ([1]; 200 mg/kg i.p. x j 1-9): 117,8±9,9 mg; Poids de la tumeur (g±S.E.) ([1]; 200 mg/kg i.p. x j 1-9): 0,3819±0,13 g; Poids du foie (g±S.E.) ([1]; 200 mg/kg i.p. x j 1-9): 1,1088±0,01 g; Volume moyen de la tumeur (cm^3 ± S.E.) [1, 9]: 0,32 cm^3; nombre de souris avec tumeur/total [1, 9]: 1/9; Volume moyen de la tumeur (cm^3 ± S.E.) [1, 10]: 1,02±0,08 cm^3; nombre de souris avec tumeur/total [1, 10]: 8/9; Poids corporel (g±S.E.) ([1]; 250 mg/kg i.p. x j 1,5,9): 20,16±0,47 g; Poids de la rate (mg±S.E.) ([1]; 250 mg/kg i.p. x j 1,5,9): 144,5± 7,3 mg; Poids de la tumeur (g±S.E.) ([1]; 250 mg/kg i.p. x j 1,5,9): 2,4530±0,18 g; Poids du foie (g±S.E.) ([1]; 250 mg/kg i.p. x j 1,5,9): 1,2015±0,04 g; nombre de souris avec tumeur/total ([1]; 300 mg/kg i.p. x j 1,5,9, jour 14): - (0/10); Volume moyen de la tumeur (cm^3 ± S.E.) [1, 11]: 0,94±0,09 cm^3; nombre de souris avec tumeur/total [1, 11]: 9/10; Poids corporel (g±S.E.) ([1]; 300 mg/kg i.p. x j 1,5,9): 20,20±0,53 g; Poids de la rate (mg±S.E.) ([1]; 300 mg/kg i.p. x j 1,5,9): 125,6±10,8 mg; Poids de la tumeur (g±S.E.) ([1]; 300 mg/kg i.p. x j 1,5,9): 2,2664±0,19 g; Poids du foie (g±S.E.) ([1]; 300 mg/kg i.p. x j 1,5,9): 1,2654±0,06 g; nombre de souris vivantes/total ([1]; 250 mg/kg i.p. x j 1,5,9): 250 " ( 9/9 ); nombre de souris vivantes/total ([1]; 300 mg/kg i.p. x j 1,5,9): 300xj 1,5,9 (10/10); toxicity of the regimen (result in words) ([2]; 100 mg/kg i.p. j 1-9): TOXIQUE; T/C (%) ([2]; 200 mg/kg i.p. j 1,5,9): 105%; Volume moyen de la tumeur (cm^3 ± S.E.) ([2]; 200 mg/kg i.p. j 1,5,9, jour 15): 0,37±0,05* cm^3; Volume moyen de la tumeur (cm^3 ± S.E.) ([2]; 200 mg/kg i.p. j 1,5,9, jour 19): 1,70±0,24* cm^3; Volume moyen de la tumeur (cm^3 ± S.E.) ([2]; 200 mg/kg i.p. j 1,5,9, jour 22): 2,43±0,31* cm^3; Volume moyen de la tumeur (cm^3 ± S.E.) [2, 12]: 3,71±0,46 cm^3; nombre d'animaux vivants/total [2, 12]: 9/10; toxicity of the regimen (result in words) ([2]; 200 mg/kg i.p. j 1-9): TOXIQUE; T/C (%) ([2]; 300 mg/kg i.p. j 1,5,9): 94%; Volume moyen de la tumeur (cm^3 ± S.E.) ([2]; 300 mg/kg i.p. j 1,5,9, jour 19): 0,24±0,14* cm^3; Volume moyen de la tumeur (cm^3 ± S.E.) ([2]; 300 mg/kg i.p. j 1,5,9, jour 22): 0,45±0,28* cm^3; Volume moyen de la tumeur (cm^3 ± S.E.) [2, 13]: 2,24±0,31 cm^3; nombre d'animaux vivants/total [2, 13]: 3/10; T/C (%) (MELANOME B16; 100 mg/kg i.p. j 1-9): 103%; Volume moyen de la tumeur (cm^3 ± S.E.) (MELANOME B16; 100 mg/kg i.p. j 1-9, jour 17): 1,01±0,15 cm^3; Volume moyen de la tumeur (cm^3 ± S.E.) (MELANOME B16; 100 mg/kg i.p. j 1-9, jour 20): 1,71±0,13* cm^3; Volume moyen de la tumeur (cm^3 ± S.E.) (MELANOME B16; 100 mg/kg i.p. j 1-9, jour 24): 3,39±0,34* cm^3; Volume moyen de la tumeur (cm^3 ± S.E.) (MELANOME B16; 100 mg/kg i.p. j 1-9, jour 27): 3,75±0,29 cm^3; nombre de souris vivantes/total (MELANOME B16; 100 mg/kg i.p. j 1-9, jour 27): 9/10; T/C (%) (MELANOME B16; 200 mg/kg i.p. j 1,5,9): 120%; Volume moyen de la tumeur (cm^3 ± S.E.) (MELANOME B16; 200 mg/kg i.p. j 1,5,9, jour 13): 0,52±0,08* cm^3; Volume moyen de la tumeur (cm^3 ± S.E.) (MELANOME B16; 200 mg/kg i.p. j 1,5,9, jour 17): 1,17±0,14* cm^3; Volume moyen de la tumeur (cm^3 ± S.E.) (MELANOME B16; 200 mg/kg i.p. j 1,5,9, jour 20): 1,66±0,15* cm^3; Volume moyen de la tumeur (cm^3 ± S.E.) (MELANOME B16; 200 mg/kg i.p. j 1,5,9, jour 24): 3,72±0,29* cm^3; Volume moyen de la tumeur (cm^3 ± S.E.) (MELANOME B16; [14]): 4,98±0,56 cm^3; nombre de souris vivantes/total (MELANOME B16; [14]): 8/10; T/C (%) (MELANOME B16; 200 mg/kg i.p. j 1-9): 138%; Volume moyen de la tumeur (cm^3 ± S.E.) (MELANOME B16; 200 mg/kg i.p. j 1-9, jour 20): 0,12±0,08* cm^3; Volume moyen de la tumeur (cm^3 ± S.E.) (MELANOME B16; 200 mg/kg i.p. j 1-9, jour 24): 1,22±0,17* cm^3; Volume moyen de la tumeur (cm^3 ± S.E.) (MELANOME B16; 200 mg/kg i.p. j 1-9, jour 27): 2,06±0,23 cm^3; nombre de souris vivantes/total (MELANOME B16; 200 mg/kg i.p. j 1-9, jour 27): 9/9; T/C (%) (MELANOME B16; 300 mg/kg i.p. j 1,5,9): 104%; Volume moyen de la tumeur (cm^3 ± S.E.) (MELANOME B16; 300 mg/kg i.p. j 1,5,9, jour 13): 0,44±0,06* cm^3; Volume moyen de la tumeur (cm^3 ± S.E.) (MELANOME B16; 300 mg/kg i.p. j 1,5,9, jour 17): 1,72±0,12* cm^3; Volume moyen de la tumeur (cm^3 ± S.E.) (MELANOME B16; 300 mg/kg i.p. j 1,5,9, jour 20): 2,67±0,24* cm^3; Volume moyen de la tumeur (cm^3 ± S.E.) (MELANOME B16; 300 mg/kg i.p. j 1,5,9, jour 24): 5,36±0,42* cm^3; Volume moyen de la tumeur (cm^3 ± S.E.) (MELANOME B16; [15]): 5,96±0,22 cm^3; nombre de souris vivantes/total (MELANOME B16; [15]): 6/10
